Literature values, collected in patent US20150010635A1, “CONTROLLED RELEASE PARTICLES, WOOD TREATMENT AGENT, AND PRODUCING METHOD THEREOF” (Japan EnviroChemicals, Ltd., priority 2011, published 2015).
Read-outs that look alike come from different tables or passages of the source.

Row | Compound | water solubility | water solubility (room temperature)
1 | CCOc1ccc(C(C)(C)COCc2cccc(Oc3ccccc3)c2)cc1 [Ethofenprox, 2-(4-ethoxyphenyl)-2-methylpropyl-3-phenoxybenzylether] | 22.5 ppb | 
2 | CCCC1COC(Cn2cncn2)(c2ccc(Cl)cc2Cl)O1 (stereo not shown) [Propiconazole, 1-[2-(2,4-dichlorophenyl)-4-n-propyl-1,3-dioxolane-2-ylmethyl]-1H-1,2,4-triazole] |  | 110 ppm
3 | CC1(C)C(C=C(Cl)Cl)C1C(=O)OCc1cccc(Oc2ccccc2)c1 (stereo not drawn) [Permethrin, 3-phenoxybenzyl(1RS,3RS;1RS,3SR)-3-(2,2-dichlorovinyl)-2,2-dimethylcyclopropanecarboxylate] | 6 ppb | 
4 | CCN(CC)C(=O)c1cccc(C)c1 [DEET, N,N-diethyl-m-toluamide] |  | 990 ppm
